The text below walks through data of patent publication US20210221832A1, “SUBSTITUTED PYRIDOINDOLES FOR THE TREATMENT AND PROPHYLAXIS OF BACTERIAL INFECTION” (Hoffmann-La Roche Inc., priority 2018, published 2021).

The nature of data set [1]: Plasma stability assay in human plasma. In kind it is in vitro ADME. To be noted: 10 μM prodrug, 37° C., prodrug remaining at 30 min compared to 0 min. On the procedure:
(§1) The degradation of prodrug and formation of active drug of present invention were monitored by current plasma stability assay. The assay is conducted in human plasma (purchased from Bioreclamation, Lot No. BRH1380385) or mouse plasma (prepared in-house using CD-1 mouse purchased from Vital River). Plasma is spiked with the test prodrug (10 μM final concentration) dissolved in DMSO (or water) and incubated at 37° C. Aliquots are removed at 0, 5, 15 and 30 minutes of incubation time, quenched with appropriate volume of internal standard solution (I.S., 0.2 μM of tolbutamide, prepared in ACN and water (1:1, v/v)), according to the mass spectrometer intensity of both analytes. Samples are centrifuged, the supernatant are removed and analyzed by LC-MS/MS. The degradation of prodrug was illustrated by calculation of percent remaining of prodrug at 30 min compared to that at 0 min (Table 2).

Data set [2] in a line: Plasma stability assay in mouse plasma. The class given is in vitro ADME, CD-1 mouse. Conditions: 10 μM prodrug, 37° C., prodrug remaining at 30 min compared to 0 min. The method, then: as §1
The nature of data set [3]: Lyophilisation Solubility Assay (LYSA). The class given is physicochemical. To be noted: aqueous buffer, thermodynamic from solid; 0.05 M phosphate buffer, pH 6.5. On the procedure:
The solubility of compounds of present invention was assessed by LYSA assay. Samples were prepared in duplicate from 10 mM DMSO stock solutions (20 μL) diluted in 30 μL pure DMSO. After evaporation of DMSO with a centrifugal vacuum evaporator, the residue was dissolved in 0.05 M phosphate buffer (150 μL, pH 6.5), which was stirred for one hour and shook for two hours. After one night, the solution was filtered using a microtiter filter plate. Then the filtrate and its 1/10 dilution were analyzed by HPLC-UV. In addition, a four-point calibration curve was prepared from the 10 mM stock solutions and used for the solubility determination of the compounds.

The subject of data set [4] is K. pneumoniae (ATCC10031). Briefly: 50% Growth Inhibitory Concentration (IC50) Determination Assay, K. pneumoniae. In kind it is cell-based. Conditions: Klebsiella pneumoniae, growth inhibition, Iso-Sensitest broth, OD 600 nm over 16 h. The method, then: (§2) The in vitro antimicrobial activity of the compounds against S. aureus (ATCC29213), K. pneumoniae (ATCC10031), and A. baumannii (ATCC17978), was determined according to the following procedure: The assay used a 10-points Iso-Sensitest broth medium to measure quantitatively the in vitro activity of the compounds against S. aureus ATCC29213, K. pneumoniae ATCC 10031, and A. baumannii ATCC 17978. Stock compounds in DMSO were serially two-fold diluted (range from 50 to 0.097 μM final concentration) in 384 wells microtiter plates and inoculated with 49 μL the bacterial suspension in Iso-Sensitest broth medium to have a final cell concentration of 5×10^5 CFU/mL in a final volume/well of 50 μL/well. Microtiter plates were incubated at 35±2° C. Bacterial cell growth was determined with the measurement of optical density at λ=600 nm each 20 minutes over a time course of 16 h. Growth inhibition was calculated during the logarithmic growth of the bacterial cells with determination of the concentration inhibiting 50% (IC50) of the growth. The parent compounds of the present invention were tested for their concentration inhibiting 50% (IC50). The data of IC50 over S. aureus (ATCC29213), K. pneumoniae (ATCC10031), and A. baumannii (ATCC17978) are illustrated in Table 6.

The test system of a further data set is S. aureus (ATCC29213). Briefly: 50% Growth Inhibitory Concentration (IC50) Determination Assay, S. aureus. In kind it is cell-based. Conditions: Staphylococcus aureus, growth inhibition, Iso-Sensitest broth, OD 600 nm over 16 h. The method, then: as §2
In the next data set the test system is A. baumannii (ATCC17978). Description: 50% Growth Inhibitory Concentration (IC50) Determination Assay, A. baumannii. The class given is cell-based. Conditions: Acinetobacter baumannii, growth inhibition, Iso-Sensitest broth, OD 600 nm over 16 h. The method, then: as §2

Values after ≈ are worked out from the molar mass of the structure shown.

As for `CN1C[C@@H]2CCN(c3c(-c4cnc5c(c4)c(=O)c(C(=O)O)cn5C)cnc4[nH]c5c(N(C)C(=O)OCOC(=O)/C=C/C(=O)O)cc(F)c(C#N)c5c34)[C@@H]2C1` [Example 1.02, 6-[5-Cyano-6-fluoro-8-[methyl-[[(E)-3-carboxyprop-2-enoyl]oxymethoxycarbonyl]amino]-4-[(3aS,6aS)-5-methyl-2,3,3a,4,6,6a-hexahydropyrrolo[2,3-c]pyrrol-1-yl]-9H-pyrido[2,3-b]indol-3-yl]-1-methyl-4-oxo-1,8-naphthyridine-3-carboxylic acid], the “Percent Remaining (%) H” value in data set [1] is listed as 88.2%. In data set [2], the “Percent Remaining (%) M” value was 70.2%. Also, in data set [3], the solubility (commonly the concentration that dissolves in the medium under given conditions) was over 895 µg/mL.
For the compound `CNc1cc(F)c(C#N)c2c1[nH]c1ncc(-c3cnc4c(c3)c(=O)c(C(=O)O)cn4C)c(N3CC[C@H]4CN(C)C[C@H]43)c12` [Example 1.03D, 6-[5-cyano-6-fluoro-8-(methylamino)-4-[(3aS,6aS)-5-methyl-2,3,3a,4,6,6a-hexahydropyrrolo[2,3-c]pyrrol-1-yl]-9H-pyrido[2,3-b]indol-3-yl]-1-methyl-4-oxo-1,8-naphthyridine-3-carboxylic acid], the IC50 (in general, the concentration at which inhibition is half-maximal) in data set [4] was under 98 nM; in the data set with S. aureus (ATCC29213), under 98 nM; in the data set with A. baumannii (ATCC17978), 45 nM. Moreover, in data set [3], the solubility is 194 µg/mL (≈ 342 µM).
Regarding `CNc1cc(F)c(C#N)c2c3c(N4CC[C@H]5CN(C)C[C@H]54)c(-c4cnc5c(c4)c(=O)c(C(=O)O)cn5C)cn(COP(=O)(O)O)c-3nc12` [Example 1.04, 6-[5-Cyano-6-fluoro-8-(methylamino)-1-(phosphonooxymethyl)-4-[(3aS,6aS)-5-methyl-2,3,3a,4,6,6a-hexahydropyrrolo[2,3-c]pyrrol-1-yl]pyrido[2,3-b]indol-3-yl]-1-methyl-4-oxo-1,8-naphthyridine-3-carboxylic acid], the “Percent Remaining (%) H” value in data set [1] is 95.9%. In addition, the “Percent Remaining (%) M” value in data set [2] came out at 79.1%. In data set [3], this compound showed a solubility of over 950 µg/mL.
As for `CNc1cc(F)c(C#N)c2c1[nH]c1ncc(-c3cnc4c(c3)c(=O)c(C(=O)OCCOC(=O)[C@@H](N)C(C)C)cn4C)c(N3CC[C@H]4CN(C)C[C@H]43)c12` [Example 1.08, 2-[(2S)-2-Amino-3-methyl-butanoyl]oxyethyl 6-[5-cyano-6-fluoro-8-(methylamino)-4-[(3aS,6aS)-5-methyl-2,3,3a,4,6,6a-hexahydropyrrolo[2,3-c]pyrrol-1-yl]-9H-pyrido[2,3-b]indol-3-yl]-1-methyl-4-oxo-1,8-naphthyridine-3-carboxylate], the “Percent Remaining (%) H” value in data set [1] is on record as 22.3%. For the same compound, in data set [2], the “Percent Remaining (%) M” value worked out at 1.3%. The solubility in data set [3] is 480 µg/mL (≈ 676 µM).
With `CNc1cc(F)c(C#N)c2c1[nH]c1ncc(-c3cnc4c(c3)c(=O)c(C(=O)OCc3oc(=O)oc3C)cn4C)c(N3CC[C@H]4CN(C)C[C@H]43)c12` [Example 1.13, (5-Methyl-2-oxo-1,3-dioxol-4-yl)methyl 6-[5-cyano-6-fluoro-8-(methylamino)-4-[(3aS,6aS)-5-methyl-2,3,3a,4,6,6a-hexahydropyrrolo[2,3-c]pyrrol-1-yl]-9H-pyrido[2,3-b]indol-3-yl]-1-methyl-4-oxo-1,8-naphthyridine-3-carboxylate], the “Percent Remaining (%) H” value in data set [1] came out at 1.9%. Further, the “Percent Remaining (%) M” value in data set [2] amounted to 0.6%.
Consider `CC(=O)OC(C)OC(=O)N(C)c1cc(F)c(C#N)c2c1[nH]c1ncc(-c3cnc4c(c3)c(=O)c(C(=O)O)cn4C)c(N3CC[C@H]4CN(C)C[C@H]43)c12` (stereo partly drawn) [Example 1.15, 6-[8-[1-Acetoxyethoxycarbonyl(methyl)amino]-5-cyano-6-fluoro-4-[(3aS,6aS)-5-methyl-2,3,3a,4,6,6a-hexahydropyrrolo[2,3-c]pyrrol-1-yl]-9H-pyrido[2,3-b]indol-3-yl]-1-methyl-4-oxo-1,8-naphthyridine-3-carboxylic acid], for which the “Percent Remaining (%) H” value in data set [1] is recorded as 50.5%. Moreover, the “Percent Remaining (%) M” value in data set [2] turned out to be 4.7%.
On to `CN1C[C@H]2CCN(c3c(-c4cnc5c(c4)c(=O)c(C(=O)O)cn5C)cnc4[nH]c5c(N(C)C(=O)OCOP(=O)(O)O)cc(F)c(F)c5c34)[C@H]2C1` [Example 1.18, 6-[5,6-Difluoro-8-[methyl(phosphonooxymethoxycarbonyl)amino]-4-[(3aR,6aR)-5-methyl-2,3,3a,4,6,6a-hexahydropyrrolo[2,3-c]pyrrol-1-yl]-9H-pyrido[2,3-b]indol-3-yl]-1-methyl-4-oxo-1,8-naphthyridine-3-carboxylic acid], for which the “Percent Remaining (%) H” value in data set [1] worked out at 67.2%. Further, in data set [2], the “Percent Remaining (%) M” value was 72.0%.
On to `CN1C[C@H]2CCN(c3c(-c4cnc5c(c4)c(=O)c(C(=O)O)cn5C)cnc4[nH]c5c(N(C)C(=O)OCOC(=O)/C=C/C(=O)O)cc(F)c(F)c5c34)[C@H]2C1` [Example 1.21, 6-[5,6-Difluoro-8-[methyl-[[(E)-3-carboxyprop-2-enoyl]oxymethoxycarbonyl]amino]-4-[(3aR,6aR)-5-methyl-2,3,3a,4,6,6a-hexahydropyrrolo[2,3-c]pyrrol-1-yl]-9H-pyrido[2,3-b]indol-3-yl]-1-methyl-4-oxo-1,8-naphthyridine-3-carboxylic acid], for which, in data set [1], the “Percent Remaining (%) H” value was found to be 88.7%. The “Percent Remaining (%) M” value in data set [2] stood at 56.0%.
As to `CNc1cc(F)c(F)c2c1[nH]c1ncc(-c3cnc4c(c3)c(=O)c(C(=O)O)cn4C)c(N3CC[C@H]4CN(C)C[C@H]43)c12` [Example 1.26E, 6-[5,6-difluoro-8-(methylamino)-4-[(3aS,6aS)-5-methyl-2,3,3a,4,6,6a-hexahydropyrrolo[2,3-c]pyrrol-1-yl]-9H-pyrido[2,3-b]indol-3-yl]-1-methyl-4-oxo-1,8-naphthyridine-3-carboxylic acid], the values for the IC50 (in data set [4]; with S. aureus (ATCC29213); in the data set with A. baumannii (ATCC17978)) were under 98 nM, under 98 nM and 39 nM, respectively. The solubility in data set [3] worked out at 137 µg/mL (≈ 245 µM).
As for `CNc1cc(F)c(F)c2c1[nH]c1ncc(-c3ccc4ccc(C(=O)O)c(=O)n4c3)c(N3CC[C@H]4CN(C)C[C@H]43)c12` [Example 1.34D, 7-[5,6-difluoro-8-(methylamino)-4-[(3aS,6aS)-5-methyl-2,3,3a,4,6,6a-hexahydropyrrolo[2,3-c]pyrrol-1-yl]-9H-pyrido[2,3-b]indol-3-yl]-4-oxo-quinolizine-3-carboxylic acid], the concentration for half-maximal inhibition (IC50) (in data set [4]; in the data set on S. aureus (ATCC29213); in the data set with A. baumannii (ATCC17978)) was under 98 nM throughout. The compound further returned a solubility in data set [3] of 54 µg/mL (≈ 99.2 µM).
Regarding `CNc1cc(F)c(F)c2c1[nH]c1ncc(-c3ccc4ccc(C(=O)OC(C)OC(=O)OC(C)C)c(=O)n4c3)c(N3CC[C@H]4CN(C)C[C@H]43)c12` (stereo partly drawn) [Example 1.39, 1-Isopropoxycarbonyloxyethyl 7-[5,6-difluoro-8-(methylamino)-4-[(3aS,6aS)-5-methyl-2,3,3a,4,6,6a-hexahydropyrrolo[2,3-c]pyrrol-1-yl]-9H-pyrido[2,3-b]indol-3-yl]-4-oxo-quinolizine-3-carboxylate], in data set [1], the “Percent Remaining (%) H” value came to 98.4%. The “Percent Remaining (%) M” value in data set [2] is 0.1%.
